# Experimental data published in ChEMBL document CHEMBL4765314, “Rational design and biological evaluation of gemfibrozil modified Xenopus GLP-1 derivatives as long-acting hypoglycemic agents” (Eur J Med Chem, 2020).
# Active and inactive are the calls of the source. No cut-off for these calls is given here. Starred links: 1 amine or outer side, 2 acyl side, 3 side chain; linkers in the order of their positions; H or OH if unused. Residues, ends and D or L forms follow the SMILES beside them. Groups on a side chain read outwards from the residue. *: point of attachment. X1 = Cc1ccc(C)c(OCCCC(C)(C)C(=O)OCC(=O)NCCCCCCCCCC(NC(=O)COC(=O)C(C)(C)CCCOc2cc(C)ccc2C)C(=O)*)c1; γGlu = O=C(O)[C@H](CCC(=O)[*:2])N[*:1]
# Legend:
# [1] = Half life in Sprague-Dawley rat at 50 nmol/kg, sc measured up to 24 hrs by LC-MS/MS analysis; assay type: ADME, organism-based; details: in vivo
# Mus musculus [2] = test: Hypoglycemic activity in non-fasted db/db […] mouse assessed as increase in duration of time under normoglycemic state at 25 nmol/kg, sc by OGTT method relative to liraglutide; assay type: functional, organism-based
# Mus musculus [3] = test: Anorectic activity in C57BL/6 mouse model of diet induced obesity assessed as reduction in food intake at 25 nmol/kg, sc administered once daily for 21 days relative to control; assay type: functional, organism-based; details: time 21.0 day
# Mus musculus [4] = test: Hypoglycemic activity in 12 hrs fasted ICR mouse assessed as reduction in blood glucose level at 25 nmol/kg, ip dosed 30 mins before glucose challenge measured up to 120 mins by OGTT method; assay type: functional, organism-based; details: time 150.0 min
# Mus musculus [5] = test: Gastric emptying in 6 hrs fasted ICR mouse assessed as reduction in blood paracetamol concentration at 25 nmol/kg, ip dosed 30 mins before paracetamol dosing measured up to 60 mins by LC-MS/MS analysis; assay type: functional, organism-based; details: time 90.0 min
# Mus musculus [6] = test: Improvement in glucose tolerance in db/db mouse at 25 nmol/kg, sc administered once daily for 42 days by OGTT; assay type: functional, organism-based; details: time 42.0 day
# [7] = Stability in Sprague-Dawley rat plasma assessed as half life at 1000 ng/ml measured up to 48 hrs under shaking condition by LC-MS/MS analysis; assay type: ADME, cell-free
# Mus musculus [8] = test: Hypoglycemic activity in normal chow diet fed C57BL/6 mouse assessed as fasting blood glucose at 25 nmol/kg, sc administered once daily for 21 days; assay type: functional, organism-based; details: time 21.0 day
# Mus musculus [9] = test: Reduction in serum total cholesterol in C57BL/6 mouse model of high-fat diet induced obesity at 25 nmol/kg, sc administered once daily for 21 days; assay type: functional, organism-based; details: time 21.0 day
# [10] = Renal toxicity in ICR mouse assessed as effect on serum creatinine level at 1000 nmol/kg, sc administered once daily for 2 weeks; assay type: organism-based; details: in vivo, 336 h
# Mus musculus [11] = test: Reduction in body fat content in C57BL/6 mouse model of high-fat diet induced obesity at 25 nmol/kg, sc administered once daily for 21 days relative to control; assay type: functional; set-up: scale not given: the % may be the effect or the level left; details: time 21 day
# Mus musculus [12] = test: Insulinotropic activity in db/db mouse assessed as improvement in plasma insulin level at 25 nmol/kg, ip dosed 30 mins before glucose challenge and measured up to 60 mins by ELISA; assay type: functional, organism-based; details: time 90.0 min
# Albumin = Albumin (Homo sapiens, UniProt P02768); test: Binding affinity to human serum albumin assessed as retention factor by HPAC method; assay type: ADME
# Chain of Albumin (P02768 whole entry): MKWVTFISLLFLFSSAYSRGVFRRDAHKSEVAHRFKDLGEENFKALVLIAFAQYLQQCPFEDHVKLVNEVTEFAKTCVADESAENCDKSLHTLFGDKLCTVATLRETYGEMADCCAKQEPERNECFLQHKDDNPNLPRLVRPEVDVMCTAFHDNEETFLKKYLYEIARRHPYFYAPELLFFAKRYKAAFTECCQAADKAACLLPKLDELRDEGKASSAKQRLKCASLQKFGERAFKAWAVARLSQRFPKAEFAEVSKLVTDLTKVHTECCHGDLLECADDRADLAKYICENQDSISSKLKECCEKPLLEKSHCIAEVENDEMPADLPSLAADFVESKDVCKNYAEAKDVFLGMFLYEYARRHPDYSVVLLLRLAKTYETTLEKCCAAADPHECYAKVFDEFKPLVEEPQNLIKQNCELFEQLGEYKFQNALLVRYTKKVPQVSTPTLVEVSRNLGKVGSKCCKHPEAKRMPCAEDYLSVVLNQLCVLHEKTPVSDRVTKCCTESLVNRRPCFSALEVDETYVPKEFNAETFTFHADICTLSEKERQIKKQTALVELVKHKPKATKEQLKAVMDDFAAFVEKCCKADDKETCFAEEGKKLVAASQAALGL
# Mus musculus [13] = test: Increase in serum HDL level in C57BL/6 mouse model of high-fat diet induced obesity at 25 nmol/kg, sc administered once daily for 21 days; assay type: functional, organism-based; details: time 21.0 day
# Mus musculus [14] = test: Hypoglycemic activity in db/db mouse assessed as decrease in glucose excursion at 25 nmol/kg, ip dosed 30 mins before glucose challenge and measured up to 180 mins by OGTT method; assay type: functional, organism-based; details: time 210.0 min
# Mus musculus [15] = test: Hypoglycemic activity in non-fasted sc dosed db/db mouse assessed as reduction in blood glucose treated 30 mins before glucose challenge and measured up to 48 hrs by OGTT method; assay type: functional, organism-based; details: dose 25-100 nmol/kg, time min <=2910
# Mus musculus [16] = test: Hypoglycemic activity in db/db mouse assessed as improvement in glucose tolerance at 25 nmol/kg, ip dosed 30 mins before glucose challenge and measured up to 180 mins by OGTT method; assay type: functional, organism-based; details: time 210.0 min
# Mus musculus [17] = test: Improvement in glucose tolerance in db/db mouse assessed as time for superior hypoglycemic effect by measuring glucose AUC at 25 nmol/kg, sc administered once daily for 42 days by OGTT; assay type: functional; details: time 42 day
# [18] = Hepatotoxicity in ICR mouse assessed as effect on aspartate aminotransferase level at 1000 nmol/kg, sc administered once daily for 2 weeks; assay type: toxicity, organism-based; details: in vivo, 336 h
# Mus musculus [19] = test: Improvement in fasted blood glucose level in db/db mouse at 25 nmol/kg, sc administered once daily for 21 days; assay type: functional, organism-based; details: time 21.0 day
# Mus musculus [20] = test: Hypoglycemic activity in non-fasted db/db mouse assessed as duration of time during which decrease in blood glucose concentration is observed at 25 nmol/kg, sc by OGTT method; assay type: functional
# [21] = Hepatotoxicity in ICR mouse assessed as effect on alanine aminotransferase level at 1000 nmol/kg, sc administered once daily for 2 weeks; assay type: toxicity, organism-based; details: in vivo, 336 h
# Mus musculus [22] = test: Anorectic effect in normal chow diet fed C57BL/6 mouse assessed as reduction in food intake at 25 nmol/kg, sc administered once daily for 21 days; assay type: functional, organism-based; details: time 21.0 day
# Mus musculus [23] = test: Anorectic activity in non-fasted sc dosed db/db mouse assessed as reduction in food intake treated 30 mins before glucose challenge and measured up to 48 hrs; assay type: functional, organism-based; details: time min <=2910
# [24] = Renal toxicity in ICR mouse assessed as effect on blood urea nitrogen level at 1000 nmol/kg, sc administered once daily for 2 weeks; assay type: organism-based; details: in vivo, 336 h
# Mus musculus [25] = test: Reduction in body weight in C57BL/6 mouse model of diet induced obesity at 25 nmol/kg, sc administered once daily for 21 days relative to control; assay type: functional; set-up: scale not given: the % may be the effect or the level left; details: time 21 day
# [26] = Inhibition of solid-phase gastric emptying in 12 hrs fasted ICR mouse assessed reduction in gastric emptying rate at 25 nmol/kg, ip allowed for food intake 1 hrs and measured after 4 hrs […]; assay type: functional; set-up: scale not given: the % may be the effect or the level left
# Mus musculus [27] = test: Effect in normal chow diet fed C57BL/6 mouse assessed as reduction in body weight increase at 25 nmol/kg, sc administered once daily for 21 days (reference value: 10.8%); assay type: functional; set-up: scale not given: the % may be the effect or the level left; details: time 21 day
# Mus musculus [28] = test: Reduction in serum LDL level in C57BL/6 mouse model of high-fat diet induced obesity at 25 nmol/kg, sc administered once daily for 21 days; assay type: functional, organism-based; details: time 21.0 day
# Mus musculus [29] = test: Inhibition of fat mass gain in normal chow diet fed C57BL/6 mouse at 25 nmol/kg, sc administered once daily for 21 days; assay type: functional, organism-based; details: time 21.0 day
# Mus musculus [30] = test: Reduction in HbA1c level in db/db mouse at 25 nmol/kg, sc administered once daily for 42 days by OGTT; assay type: functional, organism-based; details: time 42.0 day
# [31] = Tmax in Sprague-Dawley rat at 50 nmol/kg, sc measured up to 24 hrs by LC-MS/MS analysis; assay type: ADME, organism-based; details: in vivo
# Mus musculus [32] = test: Improvement in glucose tolerance in standard chow diet fed C57BL/6 mouse at 25 nmol/kg, sc administered once daily for 21 days; assay type: functional, organism-based; details: time 21.0 day
# Mus musculus [33] = test: Hypoglycemic activity in non-fasted db/db […] mouse assessed as reduction in blood glucose level at 25 nmol/kg, ip dosed 30 mins before glucose challenge measured up to 120 mins by OGTT method; assay type: functional, organism-based
# Mus musculus [34] = test: Reduction in serum triglyceride in C57BL/6 mouse model of high-fat diet induced obesity at 25 nmol/kg, sc administered once daily for 21 days; assay type: functional, organism-based; details: time 21.0 day
# [35] = biological target: Glucagon-like peptide 1 receptor (Homo sapiens, UniProt P43220); test: Agonist activity at human GLP-1R expressed in HEK293 cells assessed as stimulation of cAMP accumulation incubated for 60 mins by HTRF assay; assay type: functional, cell-based
# Chain of Glucagon-like peptide 1 receptor (P43220 whole entry): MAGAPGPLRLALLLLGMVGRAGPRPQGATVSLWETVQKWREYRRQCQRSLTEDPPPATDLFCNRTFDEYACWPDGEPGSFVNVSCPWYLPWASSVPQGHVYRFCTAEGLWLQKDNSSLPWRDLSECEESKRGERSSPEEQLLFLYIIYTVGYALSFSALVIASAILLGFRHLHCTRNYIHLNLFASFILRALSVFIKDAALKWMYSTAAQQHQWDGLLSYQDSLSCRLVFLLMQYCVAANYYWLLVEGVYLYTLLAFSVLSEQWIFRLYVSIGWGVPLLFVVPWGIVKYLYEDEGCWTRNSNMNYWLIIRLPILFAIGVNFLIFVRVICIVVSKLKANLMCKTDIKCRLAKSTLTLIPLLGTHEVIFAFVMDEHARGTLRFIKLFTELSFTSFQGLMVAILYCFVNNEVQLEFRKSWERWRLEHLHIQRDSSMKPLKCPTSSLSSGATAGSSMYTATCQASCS
# Mus musculus [36] = test: Hypoglycemic activity in 16 hrs fasted db/db mouse assessed as reduction in blood glucose level at 25 nmol/kg, ip treated 30 mins before glucose challenge and measured at 0 to 12 hrs by multiple OGTT; assay type: functional, organism-based; details: time 750.0 min
# Mus musculus [37] = test: Improvement in HbA1c level in db/db mouse at 25 nmol/kg, sc administered once daily for 21 days; assay type: functional, organism-based; details: time 21.0 day
# Mus musculus [38] = test: Reduction in body weight gain in db/db mouse at 25 nmol/kg, sc administered once daily for 21 days; assay type: functional, organism-based; details: time 21.0 day
compound,measurement,setting,value
CC[C@H](C)[C@H](NC(=O)[C@H](CC(C)C)NC(=O)[C@H](Cc1c[nH]c2ccccc12)NC(=O)[C@H](CCC(=O)O)NC(=O)[C@@H](NC(=O)[C@H](Cc1ccccc1)NC(=O)[C@H](CCC(=O)O)NC(=O)[C@H](CCCCNC(=O)CC[C@H](NC(=O)C(CCCCCCCCCNC(=O)COC(=O)C(C)(C)CCCOc1cc(C)ccc1C)NC(=O)COC(=O)C(C)(C)CCCOc1cc(C)ccc1C)C(=O)O)NC(=O)[C@H](C)NC(=O)[C@H](C)NC(=O)[C@H](CCC(=O)O)NC(=O)[C@H](CCC(=O)O)NC(=O)[C@H](CCC(=O)O)NC(=O)[C@H](CC(C)C)NC(=O)[C@H](Cc1ccc(O)cc1)NC(=O)[C@H](CCC(=O)O)NC(=O)[C@@H](NC(=O)[C@@H](NC(=O)[C@H](CC(=O)O)NC(=O)[C@H](CC(N)=O)NC(=O)[C@@H](NC(=O)[C@H](Cc1ccc(O)cc1)NC(=O)[C@@H](NC(=O)CNC(=O)[C@H](CCC(=O)O)NC(=O)CNC(=O)[C@@H](N)Cc1cnc[nH]1)[C@@H](C)O)[C@@H](C)O)C(C)C)[C@@H](C)O)[C@@H](C)CC)C(=O)N[C@@H](CCCCN)C(=O)NCC(=O)N[C@@H](CCCCN)C(=O)N1CCC[C@H]1C(=O)N[C@@H](CO)C(=O)N[C@@H](CO)C(=O)NCC(=O)N[C@@H](C)C(=O)N1CCC[C@H]1C(=O)N1CCC[C@H]1C(=O)N1CCC[C@H]1C(=O)N[C@@H](CO)C(=O)O (some centres undefined) (H-HGEGTYTNDVTEYLEEEAAK([γGlu-X1])EFIEWLIKGKPSSGAPPPS-OH),half-life,[1],7 h
same,Activity,Mus musculus [2],Active
same,Activity,Mus musculus [3],Active
same,Activity,Mus musculus [4],Active
same,Activity,Mus musculus [5],Active
same,Activity,Mus musculus [6],Active
same,half-life at 1000 ng/ml,[7],37.6 h
same,Activity,Mus musculus [8],inactive
same,Activity,Mus musculus [9],Active
same,Activity,[10],Non-Toxic
same,Activity,Mus musculus [11],29.8%
same,Activity,Mus musculus [12],Active
same,K,Albumin,13.3
same,Activity,Mus musculus [13],Active
same,Activity,Mus musculus [14],Active
same,Activity,Mus musculus [15],Dose-dependent effect
same,Activity,Mus musculus [16],Active
same,Time,Mus musculus [17],84 days
same,Activity,[18],Non-Toxic
same,Activity,Mus musculus [19],Active
same,Time,Mus musculus [20],24 h
same,Activity,[21],Non-Toxic
same,Activity,Mus musculus [22],Active
same,Activity,Mus musculus [23],Dose-dependent effect
same,Activity,[24],Non-Toxic
same,Activity,Mus musculus [25],15.4%
same,Activity,[26],48.3%
same,Activity,Mus musculus [27],4.5%
same,Activity,Mus musculus [28],Active
same,Activity,Mus musculus [29],Active
same,Activity,Mus musculus [30],Active
same,Tmax,[31],4 h
same,Activity,Mus musculus [32],inactive
same,Activity,Mus musculus [33],Active
same,Activity,Mus musculus [34],Active
same,EC50,[35],170 pM
same,Activity,Mus musculus [36],Active
same,Activity,Mus musculus [37],Active
same,Activity,Mus musculus [38],Active
